Data reported in patent publication US20220002333A1, “CRYSTALLINE FORM A OF 2'-FLUORO-4'-SUBSTITUTED NUCLEOSIDE ANALOGUE I AND PREPARATION METHOD AND APPLICATION THEREOF” (Henan Genuine Biotech Co., Ltd., priority 2019, published 2022).
Like-named read-outs stand apart in the source and are kept apart here.

What was measured:
leukemia = experiment: Anticancer activity on leukemia
Procedure: (§1) The anticancer activity of the crystalline form A of the compound I on B-cell non-Hodgkin lymphoma, lung cancer, gastric cancer, colorectal cancer and leukemia was determined according to the literature method (Wang, Q. et al Biochemical Pharmacology 2011, 81, 848; Asian Pacific Journal of Cancer Prevention 2014, 15, 6829).

[1] = test system: B-cell non-Hodgkin's lymphoma; experiment: Anticancer activity on B-cell non-Hodgkin's lymphoma
Procedure: The anticancer (non-Hodgkin's lymphoma) activity of the crystalline form A of the compound I was determined according to the literature method (Asian Pacific Journal of cancer prevention 2014, 15, 6829).
as §1

lung cancer = experiment: Anticancer activity on lung cancer
Procedure: as §1

[2] = Stability evaluation of crystalline forms under high temperature, high humidity and light (XRPD); format: physicochemical; conditions: for Stability of crystalline form under high humidity: 40° C. and 75% humidity for five and ten days; for Stability of crystalline form under high temperature: 60° C. for five days and ten days; for Stability in stability evaluation (overall): high temperature, high humidity and light
Procedure: The crystalline forms of the compound were systematically screened by means of unitary method, binary method, cooling, dissolution (positive and negative), diffusion and so on, and two crystalline forms were found: crystalline form A and amorphous crystalline form B. The stabilities of the crystalline form A and the crystalline form B under high temperature, high humidity and light were evaluated respectively. […] These experimental conditions were as follows: the high temperature condition is 60° C. for five days and ten days; the high humidity condition is 40° C. and 75% humidity for five and ten days; the light conditions were 4500 lux for five and ten days.

[3] = Static electricity and mixing uniformity with excipients / content of compound I in tablets; format: physicochemical; conditions: for Drug content for each tablet: 10 tablets arbitrarily selected, average 1 mg compound I and 149 mg excipients per 150 mg tablet; for Static: solid compound I
Procedure: After 10 days of storage at 40° C./75% humidity, 80-90% of the solid compound I with amorphous form B is gradually transformed into stable crystalline form A. The compound of crystalline form A is a loose solid. Because the dosage of the compound I for adults with AIDS is only 1-3 mg per day, which is a low amount, the uniform mixing of the compound with an excipient is crucial to ensure the anti HIV effect of the drug.

T-cell lymphoma = experiment: Anti-T-cell lymphoma activity in patient-derived tumor xenografts (PDX) mouse model; format: in vivo
Procedure: The inhibitory effect of the crystalline form A of the compound I on T-cell lymphoma was determined by patient-derived tumor xenograft (PDX).
After the patient's T-cell lymphoid carcinoma tissue was sampled, the tissue was transferred to a specific pathogen free (SPF) animal room through a transfer window. In a super clean table, phosphate buffered saline (PBS) buffer with double antibodies, Dulbecco's modified eagle medium (DMEM) medium, Petri dish and ice bag were prepared. An appropriate amount of PBS and DMEM were poured to the Petri dishes on ice. The tissue was taken out and put into PBS for preliminary cleaning, and necrotic and normal tissue was removed. The tissue in PBS was transferred to DMEM. The remaining tissue was cut into small pieces of 20-30 mm^3 patches, which were transplanted into the armpit and back of mice with puncture needles. Each mouse was inoculated with the tissue on one site. The tumors of the inoculated mice were taken out regularly, photographed, and the volume changes thereof were compared (see FIG. 9).

[4] = listed as sheet amorphous solid B

Row | Stability in stability evaluation (overall) [2] | Mixing with excipients [3] | Drug content for each tablet [3] [mg] | Static [3] | Static ([3]; listed as Crystalline form) | Portion of solid transformed into stable crystalline form A ([2]; after 10 days of storage at 40° C./75% humidity) | Drug content for each tablet ([3]; listed as Amorphous B) [mg] | Mixing with excipients [3, 4] | Static ([3]; listed as Amorphous B) | Static [3, 4] | Compound | Inhibitory effect on leukemia (leukemia) | Inhibitory effect on B-cell non-Hodgkin's lymphoma [1] | Inhibitory effect on lung cancer (lung cancer) | Stability of crystalline form under high humidity [2] | Stability of crystalline form under high temperature [2] | Inhibition of growth of T-cell lymphoma (T-cell lymphoma; dose 2 mg/kg) | Inhibition of growth of T-cell lymphoma (T-cell lymphoma; dose 4 mg/kg) | Inhibition of growth of T-cell lymphoma (T-cell lymphoma; dose 8 mg/kg)
1 |  |  |  |  |  |  |  |  |  |  | [N-]=[N+]=N[C@]1(CO)O[C@@H](n2ccc(N)nc2=O)[C@@H](F)[C@@H]1O [compound I, 2′-fluoro-4′-substituted nucleoside analogue I] | significant inhibitory effects | significant inhibitory effects | significant inhibitory effects |  |  |  |  | 
2 | good stability | easy to mix evenly with excipients | 0.95 to 1.05 | no static electricity | No |  |  |  |  |  | [N-]=[N+]=N[C@]1(CO)O[C@@H](n2ccc(N)nc2=O)[C@@H](F)[C@@H]1O [crystalline form A, 2′-fluoro-4′-substituted nucleoside analogue I] |  |  |  | stable | stable | significantly inhibit | significantly inhibit | significantly inhibit
3 | generally stable |  |  |  |  | 80-90% | 0.5 to 1.5 | not easy to mix evenly with excipients | Yes | obvious static electricity | [N-]=[N+]=N[C@]1(CO)O[C@@H](n2ccc(N)nc2=O)[C@@H](F)[C@@H]1O [crystalline form B, 2′-fluoro-4′-substituted nucleoside analogue I] |  |  |  | gradually transformed into crystalline form A | gradually transformed into crystalline form A |  |  | 
